Values joined by “and” are separate entries in the source; they are usually repeats but may differ in a detail not shown here. Equal entries are not always repeated. Inconclusive results and toxic doses are left out.
System: L1210 leukemia ip in BDF1 mice, survival T/C
Test: NCI In Vivo Anticancer Drug Screen. Data for tumor model L1210 Leukemia (intraperitoneal) in B6D2F1 (BDF1) mice
Settings: endpoint: mean survival time, higher = longer survival
Method in brief: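 Ratio derived from survival: compound-dosed mice over vehicle-dosed mice, all bearing a transplantable tumor.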

O=c1oc(Cl)cc2oc(=O)n(-c3ccccc3)c(=O)c12
T/C (dose: 6.25 mg/kg/injection, schedule: Q01DX009 (ip), vehicle: saline with Tween-80): 106 % of control | T/C (dose: 12.5 mg/kg/injection, schedule: Q01DX009 (ip), vehicle: saline with Tween-80): 98 % of control | T/C (dose: 25.0 mg/kg/injection, schedule: Q01DX009 (ip), vehicle: saline with Tween-80): 93 % of control and 109 % of control | T/C (dose: 25.0 mg/kg/injection, schedule: Q04DX002 (ip), vehicle: saline with Tween-80): 98 % of control | T/C (dose: 50.0 mg/kg/injection, schedule: Q04DX002 (ip), vehicle: saline with Tween-80): 102 % of control | T/C (dose: 100.0 mg/kg/injection, schedule: Q04DX002 (ip), vehicle: saline with Tween-80): 96 % of control and 98 % of control

CCO/C(C)=N/N(C)c1n[n+]([O-])ccc1C
T/C (dose: 100.0 mg/kg/injection, schedule: Q04DX002 (ip), vehicle: saline): 189 % of control | T/C (dose: 200.0 mg/kg/injection, schedule: Q04DX002 (ip), vehicle: saline): 96 % of control | T/C (dose: 400.0 mg/kg/injection, schedule: Q04DX002 (ip), vehicle: saline): 96 % of control

CNCC1C(c2ccc(OC)cc2)C1c1ccc(OC)cc1 (centres undefined)
T/C (dose: 12.5 mg/kg/injection, schedule: Q04DX002 (ip), vehicle: Klucel (hydroxypropylcellulose) (HPC)): 102 % of control | T/C (dose: 25.0 mg/kg/injection, schedule: Q04DX002 (ip), vehicle: Klucel (hydroxypropylcellulose) (HPC)): 108 % of control | T/C (dose: 50.0 mg/kg/injection, schedule: Q04DX002 (ip), vehicle: Klucel (hydroxypropylcellulose) (HPC)): 94 % of control

CN(C)N=C(c1ccccc1)c1ccccc1
T/C (dose: 50.0 mg/kg/injection, schedule: Q01DX009 (ip), vehicle: Klucel (hydroxypropylcellulose) (HPC)): 86 % of control | T/C (dose: 100.0 mg/kg/injection, schedule: Q01DX009 (ip), vehicle: Klucel (hydroxypropylcellulose) (HPC)): 97 % of control

c1ccc(CN2CCCCC2)nc1
T/C (dose: 10.0 mg/kg/injection, schedule: Q01DX009 (ip), vehicle: Klucel (hydroxypropylcellulose) (HPC)): 103 % of control | T/C (dose: 10.0 mg/kg/injection, schedule: Q04DX003 (ip), vehicle: Klucel (hydroxypropylcellulose) (HPC)): 92 % of control | T/C (dose: 20.0 mg/kg/injection, schedule: Q01DX009 (ip), vehicle: Klucel (hydroxypropylcellulose) (HPC)): 91 % of control | T/C (dose: 20.0 mg/kg/injection, schedule: Q04DX003 (ip), vehicle: Klucel (hydroxypropylcellulose) (HPC)): 97 % of control | T/C (dose: 40.0 mg/kg/injection, schedule: Q04DX003 (ip), vehicle: Klucel (hydroxypropylcellulose) (HPC)): 97 % of control

Reference: PubChem BioAssay AID248 (DTP/NCI, 2004)
